The target of the experiment is Adenosine kinase (Homo sapiens) (UniProt P55263).
Chain of Adenosine kinase (Homo sapiens) (P55263 2-362 limits assumed): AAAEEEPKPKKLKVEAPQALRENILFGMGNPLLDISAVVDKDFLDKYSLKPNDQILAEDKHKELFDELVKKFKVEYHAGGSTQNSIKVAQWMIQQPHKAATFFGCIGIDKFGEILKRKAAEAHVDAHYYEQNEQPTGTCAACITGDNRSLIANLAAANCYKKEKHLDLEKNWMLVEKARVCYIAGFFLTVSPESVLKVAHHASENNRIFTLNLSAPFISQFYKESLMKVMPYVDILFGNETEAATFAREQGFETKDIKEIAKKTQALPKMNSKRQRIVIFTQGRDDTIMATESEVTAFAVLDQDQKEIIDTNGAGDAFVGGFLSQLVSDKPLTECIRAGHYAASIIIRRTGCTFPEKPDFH

Description: Inhibition of adenosine kinase (unknown origin)

`[N-]=[N+]=NC[C@H]1O[C@@H](n2cc(Br)c3c(N)ncnc32)[C@H](O)[C@@H]1O` had a logIC50 of -1.2.
The value for `[N-]=[N+]=NC[C@H]1O[C@@H](n2cc(I)c3c(Cl)ncnc32)[C@H](O)[C@@H]1O` was -2.05; that for `Nc1ncnc2c1c(Cl)cn2[C@@H]1O[C@H](CO)[C@@H](O)[C@H]1O` was -0.678.
The molecule `Nc1ncnc2c1c(Br)cn2[C@@H]1O[C@H](CO)[C@@H](O)[C@H]1O` returned a logIC50 of -0.921.
Next, `CSc1ncnc2c1c(I)cn2[C@@H]1O[C@H](C)[C@@H](O)[C@H]1O`: -1.35; `CSc1cn([C@@H]2O[C@H](C)[C@@H](O)[C@H]2O)c2ncnc(Cl)c12`: -1.16; `CSc1cn([C@@H]2O[C@H](C)[C@@H](O)[C@H]2O)c2ncnc(N)c12`: 0.13.
For `[N-]=[N+]=NC[C@H]1O[C@@H](n2cc(Br)c3c(Cl)ncnc32)[C@H](O)[C@@H]1O`, the logIC50 is -1.
For `C[C@H]1O[C@@H](n2cc(C#N)c3c(N)ncnc32)[C@H](O)[C@@H]1O`, the logIC50 is -0.509.
Molecule `NC[C@H]1O[C@@H](n2cc(I)c3c(N)ncnc32)[C@H](O)[C@@H]1O` had a logIC50 of -3.22.
`Cc1cn([C@@H]2O[C@H](C)[C@@H](O)[C@H]2O)c2ncnc(Cl)c12` had a logIC50 of -0.272.
The molecule `C=C[C@H]1O[C@@H](n2cc(I)c3c(N)ncnc32)[C@H](O)[C@@H]1O` registered a logIC50 of -1.
Next, `COC[C@H]1O[C@@H](n2cc(I)c3c(N)ncnc32)[C@H](O)[C@@H]1O`: 0.0792.
On to `OC[C@H]1O[C@@H](n2cc(I)c3c(Cl)ncnc32)[C@H](O)[C@@H]1O`, for which the logIC50 was -1.62.
`Nc1ncnc2c1c(Br)cn2[C@@H]1OC[C@@H](O)[C@H]1O` yielded a logIC50 of -0.301.
`[N-]=[N+]=NC[C@H]1O[C@@H](n2cc(I)c3c(N)ncnc32)[C@H](O)[C@@H]1O`: the logIC50 was -1.46.
As to `C[C@H]1O[C@@H](n2cc(Br)c3c(Cl)ncnc32)[C@H](O)[C@@H]1O`, the logIC50 is -1.3.
`C[C@H]1O[C@@H](n2cc(I)c3c(S)ncnc32)[C@H](O)[C@@H]1O` showed a logIC50 of 0.813.
In the case of `NC[C@H]1O[C@@H](n2cc(Br)c3c(N)ncnc32)[C@H](O)[C@@H]1O`, the logIC50 is -3.7.
Next, `CNc1ncnc2c1c(I)cn2[C@@H]1O[C@H](C)[C@@H](O)[C@H]1O`: 0.0792; `C[C@H]1O[C@@H](n2cc(I)c3c(Cl)ncnc32)[C@H](O)[C@@H]1O`: -2.52.
The value for `CC[C@H]1O[C@@H](n2cc(I)c3c(N)ncnc32)[C@H](O)[C@@H]1O` was -1.22.
For `NC[C@H]1O[C@@H](n2cc(I)c3c(Cl)ncnc32)[C@H](O)[C@@H]1O`, the logIC50 is -4.

(Values after ChEMBL document CHEMBL3046861, “QSAR STUDIES ON ADENOSINE KINASE INHIBITORS” (Med Chem Res, 2004).)
